The test system of the experiment is NCI-H211 tumor spheroids, viability percent test/control. As to the kind of experiment: Anticancer human tumor NCI-H211 cell line growth inhibition.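 On all read-outs here: spheroids exposed to agents for seven days before readout.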 The conditions noted are these: spheroids with HUVEC and MSC; for viability, T/C: stronger effect = lower value. Put shortly: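 Complex spheroids of malignant cells with endothelial cells and mesenchymal stem cells; agents alone or combined, from near clinical Cmax (or 10 microM if unknown) down in half-log steps, 0.25% DMSO final.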

pIC50: −log10 of the molar value. Values joined by “and” are separate entries in the source; they are usually repeats but may differ in a detail not shown here. Identical values can stand only once. Bounds are passed on as bounds.

On to `CC(C)n1c(=O)n(C)c2cnc3cc(F)c(-c4ccc(OCCCN5CCCCC5)nc4)cc3c21` + Cn1nnc2c(C(N)=O)ncn2c1=O, for which the pIC50 by setting is: (curve of first compound, second compound 1 µM) 6.18; (curve of first compound, second compound 3.16 µM) 6.11; (curve of first compound, second compound 10 µM) 6.93; (curve of first compound, second compound 31.6 µM) greater than 7.50; (curve of first compound, second compound 100 µM) greater than 7.50. Further, the viability, T/C was 70.8% (second compound 1 µM, first compound 0.0316 µM); 69.4% (second compound 1 µM, first compound 0.1 µM); 54% (second compound 1 µM, first compound 0.316 µM); 48.1% (second compound 1 µM, first compound 1 µM); 28.4% (second compound 1 µM, first compound 3.16 µM); 9.99% (second compound 1 µM, first compound 10 µM). The viability, T/C runs as follows: (second compound 3.16 µM, first compound 0.0316 µM) 66%; (second compound 3.16 µM, first compound 0.1 µM) 66.1%; (second compound 3.16 µM, first compound 0.316 µM) 63.8%; (second compound 3.16 µM, first compound 1 µM) 42.6%; (second compound 3.16 µM, first compound 3.16 µM) 30.7%; (second compound 3.16 µM, first compound 10 µM) 8.69%. The viability, T/C (second compound 10 µM, first compound 0.0316 µM) was 61.6%; the viability, T/C (second compound 10 µM, first compound 0.1 µM) is 52.2%; the viability, T/C (second compound 10 µM, first compound 0.316 µM) was 35.7%; the viability, T/C (second compound 10 µM, first compound 1 µM) is 34.7%; the viability, T/C (second compound 10 µM, first compound 3.16 µM) is 20.3%; the viability, T/C (second compound 10 µM, first compound 10 µM) was 4.95%. Further, the viability, T/C was 19.9% (second compound 31.6 µM, first compound 0.0316 µM); 16.5% (second compound 31.6 µM, first compound 0.1 µM); 10.7% (second compound 31.6 µM, first compound 0.316 µM); 8.57% (second compound 31.6 µM, first compound 1 µM); 5.7% (second compound 31.6 µM, first compound 3.16 µM); 0.75% (second compound 31.6 µM, first compound 10 µM). The viability, T/C is, setting by setting: (second compound 100 µM, first compound 0.0316 µM) 4.09%; (second compound 100 µM, first compound 0.1 µM) 3.62%; (second compound 100 µM, first compound 0.316 µM) 2.44%; (second compound 100 µM, first compound 1 µM) 1.96%; (second compound 100 µM, first compound 3.16 µM) 1.15%; (second compound 100 µM, first compound 10 µM) 0.49%.

Regarding `Cn1nnc2c(C(N)=O)ncn2c1=O`, the viability, T/C (compound 1 µM) is 98.3% [middle of 10 runs] and the viability, T/C (compound 10 µM) is 92.8% [middle of 10 runs].

Turning to `Cn1ncnc1[C@H]1c2n[nH]c(=O)c3cc(F)cc(c23)N[C@@H]1c1ccc(F)cc1` + CC[C@@]1(O)C(=O)OCc2c1cc1n(c2=O)Cc2cc3c(CN(C)C)c(O)ccc3nc2-1, the pIC50 is greater than 8.02 (curve of first compound, second compound 0.003 µM); greater than 8.02 (curve of first compound, second compound 0.00949 µM); greater than 8.02 (curve of first compound, second compound 0.03 µM); greater than 8.02 (curve of first compound, second compound 0.0949 µM); greater than 8.02 (curve of first compound, second compound 0.3 µM). Also, the viability, T/C runs as follows: (second compound 0.003 µM, first compound 0.00949 µM) 1.01%; (second compound 0.003 µM, first compound 0.03 µM) 1.19%; (second compound 0.003 µM, first compound 0.0949 µM) 1.05%; (second compound 0.003 µM, first compound 0.3 µM) 1.13%; (second compound 0.003 µM, first compound 0.949 µM) 1.18%; (second compound 0.003 µM, first compound 3 µM) 1.13%. The viability, T/C is 1.17% (second compound 0.00949 µM, first compound 0.00949 µM); 1.18% (second compound 0.00949 µM, first compound 0.03 µM); 1.24% (second compound 0.00949 µM, first compound 0.0949 µM); 1.21% (second compound 0.00949 µM, first compound 0.3 µM); 1.11% (second compound 0.00949 µM, first compound 0.949 µM); 1.49% (second compound 0.00949 µM, first compound 3 µM). For the same molecule, the viability, T/C runs as follows: (second compound 0.03 µM, first compound 0.00949 µM) 0.91%; (second compound 0.03 µM, first compound 0.03 µM) 1.11%; (second compound 0.03 µM, first compound 0.0949 µM) 1.25%; (second compound 0.03 µM, first compound 0.3 µM) 1.13%; (second compound 0.03 µM, first compound 0.949 µM) 1.14%; (second compound 0.03 µM, first compound 3 µM) 1.06%. The viability, T/C (second compound 0.0949 µM, first compound 0.00949 µM) is 1.14%; the viability, T/C (second compound 0.0949 µM, first compound 0.03 µM) was 1.25%; the viability, T/C (second compound 0.0949 µM, first compound 0.0949 µM) was 1.17%; the viability, T/C (second compound 0.0949 µM, first compound 0.3 µM) is 1.17%; the viability, T/C (second compound 0.0949 µM, first compound 0.949 µM) was 1.1%; the viability, T/C (second compound 0.0949 µM, first compound 3 µM) is 1.34%. Besides, the viability, T/C reads like this: (second compound 0.3 µM, first compound 0.00949 µM) 1.06%; (second compound 0.3 µM, first compound 0.03 µM) 1.01%; (second compound 0.3 µM, first compound 0.0949 µM) 1.1%; (second compound 0.3 µM, first compound 0.3 µM) 1.37%; (second compound 0.3 µM, first compound 0.949 µM) 1.05%; (second compound 0.3 µM, first compound 3 µM) 1.06%.

As for `CNCc1ccc(-c2cc(-c3nc(-c4ccc(S(=O)(=O)C(C)C)cc4)cnc3N)on2)cc1`, the viability, T/C by setting is: (compound 0.00949 µM) 66.6% and 86.6% and 97.1%; (compound 0.03 µM) 44.6% and 56.7% and 86.2%; (compound 0.0949 µM) 9.22% and 5.33% and 14.5%; (compound 0.3 µM) 1.18% and 1.04% and 0.87%; (compound 0.949 µM) 0.24% and 0.22% and 0.59%; (compound 3 µM) 0.17% and 0.19% (2×). For the same molecule, the pIC50 (curve of compound) was 7.65 and 7.46 and 7.27.

Take `CC(C)n1c(=O)n(C)c2cnc3cc(F)c(-c4ccc(OCCCN5CCCCC5)nc4)cc3c21`: the viability, T/C runs as follows: (compound 0.0316 µM) 91.8% and 79.6% and 91.9%; (compound 0.1 µM) 62.7% and 60.5% and 86.8%; (compound 0.316 µM) 77.7% and 54.9% and 93.9%; (compound 1 µM) 76.7% and 57.7% and 85.2%; (compound 3.16 µM) 66.6% and 43.2% and 68.5%; (compound 10 µM) 23.9% and 14.7% and 17.5%. The pIC50 (curve of compound) is 5.31 and 5.88 and 5.32.

For orientation: pIC50 means the IC50 on a negative log10 scale, so that one unit is a factor of ten. As usually defined, the viability, T/C is the ratio of treated to control.

For the origin of these results see PubChem BioAssay AID1845209 (Molecular Pharmacology Branch, DTP, NCI, 2023).
